Results from publication PMC5867678 (Journal of Medicinal Chemistry, 2018).
Entries after “also recorded” stand apart in the source; their conditions may differ. Like-named read-outs stand apart in the source and are kept apart here. One block for each compound: values may come before it.

Columns and labels:
[1] = Permeability assay in MDCK-MDR1 cells; details: dog
[2] = system: Salmonella typhimurium (TA98 and TA100); assay: Ames test (Mini-Ames reverse mutation screen); assay type: cell-based; details: strains TA98 and TA100, with or without S9
Description: Two strains of Salmonella typhimurium (TA98 and TA100) were employed, in the presence and absence of metabolic activation (rat liver S9). Positive controls (2-aminoanthracene, 2-nitrofluorene, and sodium azide) and a negative (DMSO solvent) control were included.

Rat pharmacokinetics = assay: Rat pharmacokinetics; parameters: species or system Sprague-Dawley rats; details: male, Sprague-Dawley, in vivo, po, 40 mg/kg
Description: All studies were conducted in fasted animals (either male Sprague-Dawley rats or female golden Syrian hamsters) by WuXi AppTec (Shanghai) Co., Ltd. Intravenous dosing (at 1 mg/kg for rats and 2 mg/kg for hamsters) utilized a solution formulation of 20% NMP and 40% PEG-400 in citrate buffer (pH 3). In rats, oral dosing (at 40–50 mg/kg) was as a suspension in 0.08% Tween 80 and 0.5% CMC in water, whereas PEG-400 was the vehicle employed for oral dosing in hamsters (at 40–50 mg/kg). Plasma samples (at 0.083 for iv only, 0.25, 0.5, 1, 2, 4, 8, and 24 h) were analyzed by LC–MS/MS, and the PK parameters were calculated using Phoenix WinNonlin software (version 6.3).

Mouse pharmacokinetics = details: in vivo; for AUC(0-t) / Cmax: female, BALB/c, 40 mg/kg; for AUC(0-t) / Cmax / bioavailability: po; for bioavailability: male
[3] = system: Salmonella typhimurium (TA98 and TA100); details: cited from earlier work
[4] = human, in vivo; cited from earlier work
[5] = Microsomal stability, CD-1 mouse liver microsomes; assay type: in vitro ADME; details: for remaining at 0.5 h, 0.5 μM: 30 min (data in parentheses)
[6] = Microsomal stability, human liver microsomes; assay type: in vitro ADME; details: pooled human liver microsomes; for remaining at 0.5 h, 0.5 μM: 30 min (data in parentheses)
Hamster pharmacokinetics = assay: Hamster pharmacokinetics; parameters: species or system golden Syrian hamsters; details: female, golden Syrian, in vivo, po
[7] = cited from earlier work
Caco-2 = system: Caco-2; parameters: method as in PMID 25261338; details: Caco-2 data; cited from earlier work

Compound: O=[N+]([O-])c1cn2c(n1)OC[C@H](Oc1ccc(OC(F)(F)F)cc1)C2 [R-6, (6R)-2-Nitro-6-[4-(trifluoromethoxy)phenoxy]-6,7-dihydro-5H-imidazo[2,1-b][1,3]oxazine]
Papp A→B at […], 2 µM [1]: 32.4 ×10⁻⁶ cm/s
mutagenic effect (Ames test) [2]: negative; also recorded: no ^d
AUC(0-t) (Rat pharmacokinetics): 80.6 µg·h/mL
Cmax (Rat pharmacokinetics): 5200 ng/mL
AUC(0-t) (Mouse pharmacokinetics): 272 µg·h/mL
Cmax (Mouse pharmacokinetics): 21000 ng/mL

Compound: O=[N+]([O-])c1cn2c(n1)OC[C@H](OCc1ccc(-c3ccc(OC(F)(F)F)cc3F)cn1)C2 [R-89]
AUC(0-t) (Mouse pharmacokinetics): 265 µg·h/mL
Cmax (Mouse pharmacokinetics): 32000 ng/mL

Compound: O=[N+]([O-])c1cn2c(n1)OCC(COc1ccc(-c3ccc(OC(F)(F)F)cc3)nc1)C2 (stereo not drawn) [compound 116]
bioavailability (Mouse pharmacokinetics; Swiss albino): 11 to 15%

bioavailability (Mouse pharmacokinetics; Swiss albino): 11 to 15%
Compound: O=[N+]([O-])c1cn2c(n1)OCC(COc1ccc(-c3ccc(F)cc3)nc1)C2 (stereo not drawn) [compound 117]

Compound: CSc1ccc(OCc2ncc([N+](=O)[O-])n2C)cc1 [fexinidazole]
Ames test result [3]: positive

Compound: O=[N+]([O-])c1cn2c(n1)OC[C@@H](OCc1ccc(OC(F)(F)F)cc1)C2 [S-1, (6S)-2-nitro-6-{[4-(trifluoromethoxy)benzyl]oxy}-6,7-dihydro-5H-imidazo[2,1-b][1,3]oxazine]
half-life in clinical trials for TB [4]: 16 to 18 h

Compound: O=[N+]([O-])c1cn2c(n1)OC[C@@H](OCc1ccc(-c3ccc(OC(F)F)cc3)cn1)C2 [S-92]
remaining at 0.5 h, 0.5 μM [5]: > 70%
remaining at 0.5 h, 0.5 μM [6]: > 70%

Compound: O=[N+]([O-])c1cn2c(n1)OC[C@@H](OCc1ccc(-c3ccc(OC(F)(F)F)cc3Cl)cn1)C2 [S-91]
remaining at 0.5 h, 0.5 μM [5]: > 70%
remaining at 0.5 h, 0.5 μM [6]: > 70%

Compound: O=[N+]([O-])c1cn2c(n1)OCC(COc1ccc(OC(F)(F)F)cc1)C2 (stereo not drawn) [compound 24]
half-life (Mouse pharmacokinetics; Swiss albino, iv, 1 mg/kg): 2 h

Compound: O=[N+]([O-])c1cn2c(n1)OC[C@@H](OCc1cccc(-c3ccc(F)cc3)n1)C2 [S-81]
remaining at 0.5 h, 0.5 μM [5]: > 70%
remaining at 0.5 h, 0.5 μM [6]: > 70%

Compound: O=[N+]([O-])c1cn2c(n1)OC[C@@H](OCc1ccc(-c3ccc(OC(F)(F)F)cc3F)cn1)C2 [S-89]
remaining at 0.5 h, 0.5 μM [5]: > 70%
remaining at 0.5 h, 0.5 μM [6]: > 70%

Compound: O=[N+]([O-])c1cn2c(n1)OC[C@H](OCc1ccc(-c3ccc(F)cc3F)nc1)C2 [R-106]
bioavailability (Hamster pharmacokinetics): 21 to 37%

Compound: O=[N+]([O-])c1cn2c(n1)OC[C@H](OCc1ccc(-c3ccc(OC(F)(F)F)cc3)cn1)C2 [R-84]
AUC(0-t) (Mouse pharmacokinetics): 211 µg·h/mL
Cmax (Mouse pharmacokinetics): 16000 ng/mL

Compound: O=[N+]([O-])c1cn2c(n1)OC[C@H](Oc1ccc(C(F)(F)F)cn1)C2 [R-136, (6R)-2-Nitro-6-{[5-(trifluoromethyl)pyridin-2-yl]oxy}-6,7-dihydro-5H-imidazo[2,1-b][1,3]oxazine]
remaining at 1 h, 1 μM [5]: 90 to 92%
mutagenic effect (Ames test) [2]: positive
remaining at 1 h, 1 μM [6]: 90 to 92%

Compound: O=[N+]([O-])c1cn2c(n1)OC[C@@H](OCc1cccc(-c3ccc(OC(F)(F)F)cc3)n1)C2 [S-77]
remaining at 0.5 h, 0.5 μM [5]: > 70%
remaining at 0.5 h, 0.5 μM [6]: > 70%

Compound: C[C@]1(COc2ccc(OC(F)(F)F)cc2)Cn2cc([N+](=O)[O-])nc2O1 [compound 4]
LogD (measured) [7]: 3.10
permeability, Papp A to B (Caco-2): 22.6 ×10^–6 cm/s
permeability, Papp B to A (Caco-2): 24.7 ×10^–6 cm/s
mutagenic effect (Ames test) [3]: no

Compound: O=[N+]([O-])c1cn2c(n1)OC[C@H](OCc1ccc(-c3ccc(F)cc3F)cn1)C2 [R-96]
bioavailability (Hamster pharmacokinetics): 21 to 37%
remaining at 1 h, 1 μM [5]: 57 to 59%
remaining at 1 h, 1 μM [6]: 57 to 59%
